Measurements taken from paper PMC8599513, “Efficient biosynthesis of nucleoside cytokinin angustmycin A containing an unusual sugar system” (Nature Communications, 2021).
Blank lines part the entries; values can stand above or below the compound they belong to.

Columns and labels:
AgmA = molecular target: T1, AgmA (Streptomyces angustmyceticus, UniProt A0A5J4L869); assay: HPLC and LC-MS, adenine release; type: biochemical; conditions: 50 mM Tris-Cl pH 7.5, 1 mM substrate, 30 °C, 2 h
T1 construct: gene San01_08890; recombinant, overexpressed in and purified from E. coli BL21(DE3)
T1 sequence (A0A5J4L869 1-193): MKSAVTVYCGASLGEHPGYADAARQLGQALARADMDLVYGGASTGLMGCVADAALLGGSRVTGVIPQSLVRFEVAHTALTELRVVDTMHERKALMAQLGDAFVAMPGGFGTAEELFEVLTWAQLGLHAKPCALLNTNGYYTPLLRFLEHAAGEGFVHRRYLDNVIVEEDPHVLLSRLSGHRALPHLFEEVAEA

AgmE = molecular target: T2, AgmE (Streptomyces angustmyceticus, UniProt A0A5J4LCM7); assay: HPLC and LC-MS, AMP formation; type: biochemical; conditions: 1 mM Mg2+, 50 mM PBS pH 7.5, 30 °C
T2 construct: gene San01_08850; recombinant, overexpressed in and purified from E. coli BL21(DE3)
T2 sequence (A0A5J4LCM7 1-178): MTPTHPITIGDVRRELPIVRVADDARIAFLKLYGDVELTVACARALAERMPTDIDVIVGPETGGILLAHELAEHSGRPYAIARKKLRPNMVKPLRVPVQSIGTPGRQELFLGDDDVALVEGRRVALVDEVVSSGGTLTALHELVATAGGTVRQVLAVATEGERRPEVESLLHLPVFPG

AgmF = tested on: T3, AgmF; assay: HPLC dehydration assay; type: biochemical, Streptomyces angustmyceticus; conditions: dehydration to angustmycin A; kinetic assay conditions only in supplement
T3 construct: recombinant, overexpressed in and purified from E. coli BL21(DE3)

Compound: Nc1ncnc2c1ncn2[C@@H]1O[C@H](COP(=O)(O)O)[C@@H](O)[C@H]1O [AMP]
HPLC and LC-MS, adenine release (AgmA): AgmA is capable of consuming AMP/dAMP as a substrate

Compound: O=P(O)(O)OC[C@H]1O[C@H](OP(=O)(O)OP(=O)(O)O)[C@H](O)[C@@H]1O [PRPP]
HPLC and LC-MS, AMP formation (AgmE; co-substrate adenine): assayed in vitro with the substrates adenine and phosphoribosyl pyrophosphate (PRPP)

Compound: Nc1ncnc2[nH]cnc12 [adenine]
HPLC and LC-MS, AMP formation (AgmE; co-substrate PRPP 1 mM, methods print adenosine instead of adenine): assayed in vitro with the substrates adenine and phosphoribosyl pyrophosphate (PRPP)

Km (AgmF): 1380 ± 121 µM
Compound: Nc1ncnc2c1ncn2[C@]1(CO)O[C@H](CO)[C@@H](O)[C@H]1O [compound 2, angustmycin C]

Compound: Nc1ncnc2c1ncn2[C@H]1C[C@H](O)[C@@H](COP(=O)(O)O)O1 [dAMP]
HPLC and LC-MS, adenine release (AgmA): AgmA is capable of consuming AMP/dAMP as a substrate
